In patent US11434241B2, “Pyrimidine derivatives for prevention and treatment of bacterial infections” (UNIVERSITE DE LIEGE, priority 2018, dated 2022):
In brackets after ≈: the same amount, converted by molar mass. Read-outs that look alike come from different tables or passages of the source.

Key:
[1] = tested on: methicillin-resistant S. aureus (MRSA) ATCC BAA-1556; assay: MIC determination on methicillin-resistant S. aureus; format: cell-based, Staphylococcus aureus; conditions: for antibacterial activity against MRSA (in words): MHB medium; for MIC: Staphylococcus aureus
Experimental: (§1) Further experiments are conducted using different strains of S. aureus, as clinically relevant Gram-positive bacterial strains: S. aureus ATCC 25904, methicillin-resistant S. aureus (MRSA) ATCC BAA-1556, Glycopeptide intermediate-resistant (GISA) S. aureus Mu-50 (ATCC 700695) in order to determine the Minimal Inhibitory Concentration (MIC) which is the minimal concentration required to prevent bacterial growth. The bioluminescent strain S. aureus Xen29 (ATCC 12600) was also used. This strain is derived from the parental strain S. aureus ATCC 12600, a pleural fluid isolate, which is also designated as NCTC8532.
(§2) A single colony selected from the different strains of S. aureus is resuspended and cultured in brain heart infusion (BHI) broth overnight (O/N) in aerobic conditions (37° C. with 220 rpm shaking), next day a 1:100 inoculum in Mueller-Hinton broth (MHB) is incubated in aerobic conditions for 3 hr (=OD0.08-0.1) and an inoculum of 1:300 dilution, corresponding to 3×10^5 CFU/ml, is incubated in presence or absence of different concentrations of the tested molecules in 1% DMSO. After O/N growth the OD of each culture was measured at 600 nm (OD600) in a spectrophotometer (Victor 3-Perkin Elmer). The MIC represents the concentration at which there is no visible growth of bacteria, i.e. ΔOD at 600 nm equal to zero (blank is the medium alone). […] The MIC of molecule 2329 against Glycopeptide intermediate-resistant (GISA) S. aureus Mu-50 (ATCC 700695) is in between 25 and 30 μM, while it is above 50 μM for molecules 2348, 2412, and 2452.
(§3) Further experiments are conducted using different strains of S. aureus, as clinically relevant Gram-positive bacterial strains: methicillin-resistant S. aureus (MRSA) ATCC BAA-1556 and S. aureus Xen29 (Perkin Elmer ATCC 12600).
(§4) To determine the MIC of the above mentioned molecules in MRSA or in Xen29, a single colony of MRSA or Xen29 is resuspended and cultured in brain heart infusion (BHI) broth overnight (O/N) in aerobic conditions (37° C. with 220 rpm shaking), next day a 1:100 inoculum in Mueller-Hinton broth (MHB) is incubated in aerobic conditions for 3 hr (OD=0.08-0.1) and an inoculum of 1:300 dilution, corresponding to 3×10^5 CFU/ml, is incubated in presence or absence of different concentrations of the tested molecules in 1% DMSO. After O/N growth the OD of each culture was measured at 600 nm (OD600) in a spectrophotometer (Victor 3-Perkin Elmer). The MIC represents the concentration at which there is no visible growth of bacteria, i.e. ΔOD at 600 nm equal to zero (blank is the medium alone).
(§5) Molecule 36z has been tested for its potential antibacterial activity by determining its minimal inhibitory concentration (MIC) according to protocols recommended by EUCAST to assess the efficacy of antibiotics against bacterial strains. In brief MIC in MRSA (ATCC BAA-1556) or in Xen29 (Perkin Elmer-ATCC 12600) for 36z (molecule 25 in WO2009/034386) was determined by culturing a single colony of MRSA or Xen29 in brain heart infusion (BHI) broth overnight (O/N) in aerobic conditions (37° C. with 220 rpm shaking), while MIC for MRSE (ATCC 35984) was determined by culturing MRSE in TSB O/N. Next day a 1:100 inoculum in Mueller-Hinton broth (MHB) is incubated in aerobic conditions for 3 hr (OD=0.08-0.1) and an inoculum of 1:300 dilution, corresponding to 3×10^5 CFU/ml, is incubated in presence or absence of different concentrations of the tested molecules in 1% DMSO. After O/N growth the OD of each culture was measured at 600 nm (OD600) in a spectrophotometer (Victor 3-Perkin Elmer). The MIC represents the concentration at which there is no visible growth of bacteria, i.e. ΔOD at 600 nm equal to zero (blank is the medium alone). No antibacterial activity was found against MRSA (ATCC BAA-1556), Xen29 (Perkin Elmer-ATCC 12600 or MRSE (ATCC 35984) strains when the molecule was used at concentrations up to 200 μM.

[2] = tested on: Staphylococcus epidermidis (ATCC 35984, also known as RP62A or MRSE); assay: MIC determination on S. epidermidis (EUCAST, OD600 after overnight growth in MHB); format: cell-based
Experimental: The Minimal Inhibitory Concentration (MIC) of molecules 2329, 2348, 2412, 2452 and 2461 was determined on Staphylococcus epidermidis (ATCC 35984, also known as RP62A) according to EUCAST (European Committee on Antimicrobial Susceptibility Testing) recommendations.
Briefly, a single colony grown on a Tryptic Soy Agar (TSA) plate was resuspended and cultured in Tryptic Soy Broth (TSB) overnight (O/N) in aerobic conditions (37° C. with 220 rpm shaking), next day a 1:50 inoculum in Mueller-Hinton broth (MHB) was incubated in aerobic conditions for 3 hr and an inoculum of 1:100 dilution, corresponding to 3×10^5 CFU/ml, was incubated in presence or absence of different concentrations of the molecules in 1% DMSO (vehicle). After O/N growth the OD of each culture was measured at 600 nm in a spectrophotometer (OD600). The MIC represents the concentration at which there is no visible growth of bacteria, i.e. ΔOD at 600 nm equal to zero (blank is the medium alone).
The Minimal Inhibitory Concentration (MIC) of pyrazolopyrimidine molecules 2539, 2544, 2666,2676, 2693, 2783, 2784 and 2782 and of purine molecules 2498, 2511, 2525, 2527, 2833, and 2840 was determined on S. epidermidis (ATCC 35984, also known as RP62A or MRSE) according to EUCAST (European Committee on Antimicrobial Susceptibility Testing) recommendations.
Briefly, a single colony grown on an agar plate was resuspended and cultured in Triptic Soy Broth (TSB) medium overnight (O/N) in aerobic conditions (37° C. with 220 rpm shaking), next day a 1:50 inoculum in Mueller-Hinton broth (MHB) was incubated in aerobic conditions for 3 hr (OD=0.08-0.1) and an inoculum of 1:300 dilution, corresponding to 3×10^5 CFU/ml, was incubated in presence or absence of different concentrations of each of the molecules in 1% DMSO (vehicle). After O/N growth the OD of each culture was measured at 600 nm (600) in a spectrophotometer (Victor 3-Perkin Elmer). The MIC represents the concentration at which there is no visible growth of bacteria, i.e. ΔOD at 600 nm equal to zero (where ΔOD is the difference between the OD with the molecule and the OD of the blank, the medium alone).
as §5

[3] = tested on: S. aureus Xen29 (ATCC 12600); assay: MIC determination on bioluminescent S. aureus Xen29; format: cell-based, Staphylococcus aureus; conditions: for MIC: Staphylococcus aureus; for antibacterial activity / inhibition of Xen29 growth (in words): MHB medium
Experimental: as §1, §2, §3, §4, §5

[4] = MHB medium, tested up to 100 μM, hydrochloride, read-out: MIC MRSE
[5] = Staphylococcus epidermidis, read-out: MIC MRSE
[6] = Staphylococcus epidermidis, MHB medium, tested up to 100 μM, read-out: MIC MRSE

Structure (SMILES) | antibacterial activity against MRSA (in words) [1] | MIC ([1]; read-out: MIC MRSA) [µM] | MIC [2, 4] [µM] | MIC [2, 5] [µM] | MIC ([3]; ATCC12600, read-out: MIC Xen29 (comparison molecules of WO2009/034386)) [µM] | MIC ([1]; read-out: MIC MRSA (comparison molecules of WO2009/034386)) [µM] | MIC ([2]; Staphylococcus epidermidis, read-out: MIC MRSE (comparison molecules of WO2009/034386)) [µM] | antibacterial activity / inhibition of Xen29 growth (in words) [3] | MIC ([3]; ATCC12600, read-out: MIC Xen29) [µM] | antibacterial activity / inhibition of MRSE growth (in words) ([2]; MHB medium) | MIC [2, 6] [µM] | MIC ([2]; MHB medium, tested up to 100 μM, read-out: MIC MRSE) [µM]
CCSc1nc(N[C@@H]2C[C@H]2c2ccc(F)c(F)c2)c2cnn(CC)c2n1.Cl [Molecule 2783, N-((1R,2S)-2-(3,4-difluorophenyl)cyclopropyl)-6-(ethylthio)-1-ethyl-1H-pyrazolo[3,4-d]pyrimidin-4-amine hydrochloride] | active | 25 | >100 | > 100 | – | – | – | – | – | – | – | –
CCCSc1nc(N[C@@H]2C[C@H]2c2ccc(F)c(F)c2)c2cnn(C)c2n1.Cl [Molecule 2782, N-((1R,2S)-2-(3,4-difluorophenyl)cyclopropyl)-6-(propylthio)-1-methyl-1H-pyrazolo[3,4-d]pyrimidin-4-amine hydrochloride] | active | 25 | >100 | > 100 | – | – | – | – | – | – | – | –
CCCCOc1nc(NC2CC2)c2ncn(Cc3c(F)ccc(C)c3F)c2n1 [38z″, 2-Butoxy-N-cyclopropyl-9-(2,6-difluoro-3-methylbenzyl)-9H-purin-6-amine, reference compound] | – | – | – | – | > 200 | > 200 | > 200 | – | – | – | – | –
CSc1nc(N[C@@H]2C[C@H]2c2ccc(F)c(F)c2)c2cnn(C)c2n1 [Molecule 2539, N-((1R,2S)-2-(3,4-difluorophenyl)cyclopropyl)-1-methyl-6-(methylthio)-1H-pyrazolo[3,4-d]pyrimidin-4-amine] | active | 25 (≈ 8.68 µg/mL) | – | – | – | – | – | able to inhibit | 30 (≈ 10.4 µg/mL) | able to inhibit MRSE growth | 50 (≈ 17.4 µg/mL) | –
CCCn1ncc2c(N[C@@H]3C[C@H]3c3ccc(F)c(F)c3)nc(SC)nc21.Cl [Molecule 2693, N-((1R,2S)-2-(3,4-difluorophenyl)cyclopropyl)-6-(methylthio)-1-propyl-1H-pyrazolo[3,4-d]pyrimidin-4-amine hydrochloride] | active | 20 | >100 | > 100 | – | – | – | – | > 100 | – | – | –
CSc1nc(N[C@@H]2C[C@H]2c2ccc(F)c(F)c2)c2ncn(C)c2n1 [Molecule 2498, N-((1R,2S)-2-(3,4-difluorophenyl)cyclopropyl)-9-methyl-2-(methylthio)-9H-purin-6-amine] | active | 30 (≈ 10.4 µg/mL) | – | – | – | – | – | able to inhibit | 30 (≈ 10.4 µg/mL) | able to inhibit MRSE growth | 60 (≈ 20.8 µg/mL) | –
CCCCSc1nc(N[C@@H]2C[C@H]2c2ccc(F)c(F)c2)c2ncn(CC)c2n1 [Molecule 2840, 2-(butylthio)-N-((1R,2S)-2-(3,4-difluorophenyl)cyclopropyl)-9-ethyl-9H-purin-6-amine] | active | 50 (≈ 20.2 µg/mL) | – | – | – | – | – | – | – | – | > 100 | >100
CCSc1nc(N[C@@H]2C[C@H]2c2ccc(F)c(F)c2)c2ncn(C)c2n1 [Molecule 2525, N-((1R,2S)-2-(3,4-difluorophenyl)cyclopropyl)-2-(ethylthio)-9-methyl-9H-purin-6-amine] | active | 25 (≈ 9.04 µg/mL) | – | – | – | – | – | able to inhibit | 30 (≈ 10.8 µg/mL) | able to inhibit MRSE growth | 40 (≈ 14.5 µg/mL) | –
CSc1nc(N[C@@H]2C[C@H]2c2ccc(F)c(F)c2)c2cnn(C(C)C)c2n1.Cl [Molecule 2676, N-((1R,2S)-2-(3,4-difluorophenyl)cyclopropyl)-1-isopropyl-6-(methylthio)-1H-pyrazolo[3,4-d]pyrimidin-4-amine hydrochloride] | active | 20 | – | 50 | – | – | – | – | > 100 | able to inhibit MRSE growth | – | –
CCCSc1nc(N[C@@H]2C[C@H]2c2ccc(F)c(F)c2)c2cnn(CC)c2n1.Cl [Molecule 2784, N-((1R,2S)-2-(3,4-difluorophenyl)cyclopropyl)-6-(propylthio)-1-ethyl-1H-pyrazolo[3,4-d]pyrimidin-4-amine hydrochloride] | active | 50 | >100 | > 100 | – | – | – | – | – | – | – | –
CCSc1nc(N[C@@H]2C[C@H]2c2ccc(F)c(F)c2)c2ncn(CC)c2n1 [Molecule 2527, N-((1R,2S)-2-(3,4-difluorophenyl)cyclopropyl)-9-ethyl-2-(ethylthio)-9H-purin-6-amine] | active | 25 (≈ 9.39 µg/mL) | – | – | – | – | – | able to inhibit | 30 (≈ 11.3 µg/mL) | able to inhibit MRSE growth | 25 (≈ 9.39 µg/mL) | –
